The results in this text go back to patent US6054475A, “Substituted dihydrobenzofuran-based phosphodiesterase 4 inhibitors useful for treating airway disorders” (Byk Gulden Lomberg Chemische Fabrik GmbH, priority 1996, dated 2000).

This assay has as its system PDE4. Put plainly: Inhibition of PDE4 activity (method of Bauer and Schwabe, adapted to microtiter plates). Conditions: Table A; inhibitory concentrations as -log IC50 (mol/l). The assay is classed as biochemical. The protocol:
The activity test was carried out according to the method of Bauer and Schwabe, which was adapted to microtiter plates (Naunyn-Schmiedeberg's Arch. Pharmacol. 311, 193-198, 1980). The PDE reaction takes place here in the first step. In a second step, the resulting 5'-nucleotide is cleaved to give the uncharged nucleoside by a 5'-nucleotidase of the snake venom from Crotalus atrox. In the third step, the nucleoside is separated from the remaining charged substrate on ion exchange columns. Using 2 ml of 30 mM ammonium formate (pH 6.0), the columns are eluted directly into minivials to which is additionally added 2 ml of scintillator fluid for counting.
Consider `COc1ccc(C2(C#N)CCC(=NO)CC2)c2c1OC1(CCCC1)C2` (centres unmarked) [Compound 14, 4-a-Cyano-4-e-(2,3-dihydro-7-methoxybenzofuran-2-spiro-1'-cyclopentan-4-yl)cyclohexan-1-one oxime], for which the “-log IC50 (inhibition of PDE4 activity)” value was found to be 7.78.

As to `COc1ccc([C@]2(C#N)CC[C@@H](C(=O)NO)CC2)c2c1OC1(CCCC1)C2` [Compound 7, cis-4-Cyano-4-(2,3-dihydro-7-methoxybenzofuran-2-spiro-1'-cyclopentan-4-yl)cyclohexane-1-carboxylic acid hydroxylamide], the “-log IC50 (inhibition of PDE4 activity)” value turned out to be 7.52.

Take `COc1ccc([C@]2(C#N)CC[C@@H](C(N)=O)CC2)c2c1OC1(CCCC1)C2` [Compound 5, cis-4-Cyano-4-(2,3-dihydro-7-methoxybenzofuran-2-spiro-1'-cyclopentan-4-yl)cyclohexane-1-carboxamide]: the “-log IC50 (inhibition of PDE4 activity)” value is 8.31.

`COc1ccc(C2(C#N)CCS(=O)(=O)CC2)c2c1OC1(CCCC1)C2` [Compound 11, 1,1-Dioxo-4-a-cyano-4-e-(2,3-dihydro-7-methoxybenzofuran-2-spiro-1'-cyclopentan-4-yl)tetrahydro-1-thiopyran]: the “-log IC50 (inhibition of PDE4 activity)” value came to 7.72.

As to `COc1ccc([C@]2(C#N)CC[C@@H](C(N)=O)CC2)c2c1OC1(CCOCC1)C2` [Compound 6, cis-4-Cyano-4-(2,3-dihydro-7-methoxybenzofuran-2-spiro-4'-tetrahydropyran-4-yl)cyclohexane-1-carboxamide], the “-log IC50 (inhibition of PDE4 activity)” value came to 7.65.

As to `COc1ccc(C2(OC)CCOCC2)c2c1OC1(CCCC1)C2` [Compound 13, 4-a-Methoxy-4-e-(2,3-dihydro-7-methoxybenzofuran-2-spiro-1'-cyclopentan-4-yl)tetrahydropyran], the “-log IC50 (inhibition of PDE4 activity)” value is 7.41.

`COc1ccc([C@]2(C#N)CC[C@@H](OP(=O)(O)Oc3ccccc3)CC2)c2c1OC1(CCCC1)C2` [Compound 8, cis-4-Cyano-4-(2,3-dihydro-7-methoxybenzofuran-2-spiro-1'-cyclopentan-4-yl)cyclohexyl-1-phenyl phosphate]: the “-log IC50 (inhibition of PDE4 activity)” value is reported as 7.44.

On to `COc1ccc(C2(C#N)CCOCC2)c2c1OC1(CCCC1)C2` [Compound 9, 4-a-Cyano-4-e-(2,3-dihydro-7-methoxybenzofuran-2-spiro-1'-cyclopentan-4-yl)tetrahydropyran], for which the “-log IC50 (inhibition of PDE4 activity)” value worked out at 8.26.

With `COc1ccc([C@]2(C#N)CC[C@@H](C(=O)O)CC2)c2c1OC1(CCOCC1)C2` [Compound 4, cis-4-Cyano-4-(2,3-dihydro-7-methoxybenzofuran-2-spiro-4'-tetrahydropyran-4-yl)cyclohexane-1-carboxylic acid], the “-log IC50 (inhibition of PDE4 activity)” value was found to be 7.69.

As for `COc1ccc([C@]2(C#N)CC[C@@H](C(=O)O)CC2)c2c1OC1(CCCC1)C2` [Compound 2.1, cis-4-Cyano-4-(2,3-dihydro-7-methoxybenzofuran-2-spiro-1'-cyclopentan-4-yl)cyclohexane-1-carboxylic acid], the “-log IC50 (inhibition of PDE4 activity)” value stood at 8.22.

`COc1ccc(C2(C#N)CCNC(=O)CC2)c2c1OC1(CCCC1)C2` (centres unmarked) [Compound 16, 7-Oxo-4-cyano-4-(2,3-dihydro-7-methoxybenzofuran-2-spiro-1'-cyclopentan-4-yl)hexahydroazepine]: the “-log IC50 (inhibition of PDE4 activity)” value is on record as 7.96.
